TGI and GI50 data for twelve molecules are collected here from PubChem BioAssay (NCI).

Test systems include 786-0 renal; ACHN renal; CAKI-1 renal; HL-60(TB) leukemia; HOP-92 NSCLC; MALME-3M melanoma; OVCAR-4 ovarian; SR leukemia; RPMI-8226 leukemia; OVCAR-8 ovarian.
Test in all cases: NCI anticancer screen, dose series, 48 h

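Five concentrations, 48 hours, 96-well plates. The concentration for 50% growth inhibition is given as GI50. TGI is the concentration that stops growth completely.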

In the case of `CCC1CNC(=O)CC1CC(=O)OC` (centres undefined), the TGI with 786-0 renal, with ACHN renal, in the test with CAKI-1 renal, with HL-60(TB) leukemia, in the test with HOP-92 NSCLC and in the test with MALME-3M melanoma was more than 100 µM throughout. The TGI in the test with OVCAR-4 ovarian and in the test with SR leukemia was more than 100 µM throughout.
In the case of `COc1ccc2nc3ccccc3c(NCCCCN(C)CCCl)c2c1`, the TGI amounted to 0.185 µM in the test with 786-0 renal; 0.132 µM with ACHN renal; 0.381 µM with CAKI-1 renal; 0.0435 µM in the test on HL-60(TB) leukemia; 1.06 µM in the test with MALME-3M melanoma; 0.843 µM in the test on OVCAR-4 ovarian. Also, the TGI in the test with RPMI-8226 leukemia amounted to 0.544 µM; with SR leukemia, 0.0355 µM.
Take `COc1cccc(C2NC(=S)NC(C)=C2C(=O)Nc2ccc(Cl)c(Cl)c2)c1` (centres undefined): the GI50 is 10.7 µM in the test with 786-0 renal; 10.1 µM in the test on ACHN renal; 9.69 µM in the test with CAKI-1 renal; more than 50 µM with HL-60(TB) leukemia; 12.5 µM in the test with HOP-92 NSCLC; 12.8 µM in the test on OVCAR-4 ovarian. The GI50 in the test with OVCAR-8 ovarian is 12.4 µM; in the test with RPMI-8226 leukemia it was 21 µM; in the test on SR leukemia, 42.6 µM. The TGI with 786-0 renal is 24 µM; in the test with ACHN renal, 23.2 µM; in the test with CAKI-1 renal, 22 µM; in the test on HL-60(TB) leukemia it was more than 50 µM; in the test on HOP-92 NSCLC, 38.7 µM; in the test with OVCAR-4 ovarian it was more than 50 µM. Further, the values for the TGI with OVCAR-8 ovarian, in the test with RPMI-8226 leukemia and in the test on SR leukemia were 23.9 µM, more than 50 µM and more than 50 µM, respectively.
`O=C1c2ccccc2C(=O)c2nc3ccc(Cl)cc3cc21`: the TGI in the test with 786-0 renal, with ACHN renal, in the test on CAKI-1 renal, with HOP-92 NSCLC, with MALME-3M melanoma and with OVCAR-4 ovarian was more than 100 µM in each case. In addition, the TGI with OVCAR-8 ovarian, in the test with RPMI-8226 leukemia and in the test with SR leukemia was more than 100 µM each time.
For `CC1=C(C(=O)Nc2ccc(Cl)c(Cl)c2)C(c2ccccc2O)NC(=O)N1` (centres undefined), the GI50 was more than 50 µM in the test with 786-0 renal; more than 50 µM in the test on ACHN renal; more than 50 µM with CAKI-1 renal; more than 50 µM with HL-60(TB) leukemia; more than 50 µM in the test with HOP-92 NSCLC; 42.7 µM in the test on OVCAR-4 ovarian. Besides, the GI50 is 24.8 µM in the test with OVCAR-8 ovarian, 34.8 µM in the test on RPMI-8226 leukemia and 39.9 µM with SR leukemia. The TGI in the test on 786-0 renal, in the test with ACHN renal, in the test on CAKI-1 renal, with HL-60(TB) leukemia, in the test with HOP-92 NSCLC and in the test on OVCAR-4 ovarian was more than 50 µM each time. Moreover, the TGI with OVCAR-8 ovarian, in the test on RPMI-8226 leukemia and in the test with SR leukemia was more than 50 µM in each case.
Regarding `CCSC(SCC)=C1C(=O)N(c2ccccc2)N=C1C`, the TGI with 786-0 renal turned out to be 27 µM; in the test with ACHN renal, 29.4 µM; in the test with CAKI-1 renal, 15.8 µM; in the test on HL-60(TB) leukemia it was 7.35 µM; in the test with HOP-92 NSCLC it was 20.1 µM; with MALME-3M melanoma, 28.3 µM. For the same molecule, the TGI in the test with OVCAR-8 ovarian stood at 24.4 µM; in the test on RPMI-8226 leukemia, 27 µM; in the test with SR leukemia it was 38.4 µM.
In the case of `CC(=O)Oc1ccc2c(c1)CC[C@@H]1C2CC[C@]2(C)C(=O)NC(=O)CC12` (some centres undefined), the TGI in the test with 786-0 renal, in the test on ACHN renal, in the test with CAKI-1 renal, in the test with HL-60(TB) leukemia, in the test with HOP-92 NSCLC and in the test on MALME-3M melanoma was more than 100 µM each time. Moreover, the TGI with OVCAR-4 ovarian, in the test with OVCAR-8 ovarian and in the test with SR leukemia was more than 100 µM in each case.
As for `CC1CC2(C)CC(=O)C1C1C(=O)N(CCN3CCCCC3)C(=O)C12` (centres undefined), the GI50 in the test on 786-0 renal, in the test on ACHN renal, in the test on CAKI-1 renal, with HL-60(TB) leukemia, in the test with HOP-92 NSCLC and in the test with MALME-3M melanoma was more than 100 µM each time. Moreover, the GI50 in the test on OVCAR-4 ovarian, in the test on OVCAR-8 ovarian and with SR leukemia was more than 100 µM in each case. The TGI in the test on 786-0 renal, in the test with ACHN renal, with CAKI-1 renal, with HL-60(TB) leukemia, with HOP-92 NSCLC and in the test on MALME-3M melanoma was more than 100 µM in each case. Moreover, the TGI in the test with OVCAR-4 ovarian, with OVCAR-8 ovarian and in the test on SR leukemia was more than 100 µM throughout.
`CSc1ccc(C(=O)C(=O)c2ccc(SC)s2)s1`: the TGI in the test on 786-0 renal, with ACHN renal, in the test with CAKI-1 renal, in the test on HL-60(TB) leukemia, with HOP-92 NSCLC and in the test on OVCAR-4 ovarian was more than 10 µM in each case. Also, the TGI with OVCAR-8 ovarian, in the test with RPMI-8226 leukemia and with SR leukemia was more than 10 µM in each case.
On to `CO[C@@]12[C@@H]3NC3CN1C1=C(C(=O)C(N)=C(C)C1=O)[C@@H]2COC(N)=O` (some centres undefined), for which the TGI in the test on 786-0 renal was 2.77 µM; with ACHN renal, 1.63 µM; in the test on CAKI-1 renal, 2.08 µM; in the test on HL-60(TB) leukemia it was 7.43 µM; with HOP-92 NSCLC, 5.73 µM; with MALME-3M melanoma, 2.21 µM. Besides, the TGI with OVCAR-4 ovarian is 33.9 µM; with RPMI-8226 leukemia, 27.8 µM; with SR leukemia, more than 100 µM. Also, the GI50 in the test with HL-60(TB) leukemia is 0.0862 µM; in the test on HOP-92 NSCLC it was 1.44 µM; with MALME-3M melanoma it was 0.511 µM; in the test on OVCAR-4 ovarian, 2.22 µM; in the test on RPMI-8226 leukemia, 1.84 µM; in the test on SR leukemia it was 0.0325 µM.
Regarding `CCOC(=O)C(NC(=O)c1[nH]cnc1/N=N/N(C)C)C(C)C` (centres undefined), the TGI in the test with 786-0 renal, in the test with ACHN renal, in the test on CAKI-1 renal, in the test with HL-60(TB) leukemia, in the test with MALME-3M melanoma and in the test with OVCAR-4 ovarian was more than 100 µM throughout. Also, the TGI in the test with OVCAR-8 ovarian, in the test on RPMI-8226 leukemia and in the test on SR leukemia was more than 100 µM each time.
For the molecule `C#CCN(Cc1ccc2nc(N)[nH]c(=O)c2c1)c1ccc(C(=O)NC(CCC(=O)O)C(=O)O)cc1` (centres undefined), the TGI in the test on 786-0 renal, in the test with ACHN renal, in the test on CAKI-1 renal, in the test with HL-60(TB) leukemia, in the test with HOP-92 NSCLC and in the test on MALME-3M melanoma was more than 100 µM in each case. Also, the TGI in the test with OVCAR-8 ovarian, in the test on RPMI-8226 leukemia and with SR leukemia was more than 100 µM throughout.
